Measurements published in patent US10544155B2, “Spirocyclic quinolizine derivatives useful as HIV integrase inhibitors” (MERCK SHARP & DOHME CORP., priority 2015, dated 2020).
pIC50: −log10 of the molar value. Like-named read-outs stand apart in the source and are kept apart here.

Tested on: HIV-1 (NL4-3 strain)
Assay: Assay for inhibition of HIV replication (MT4-gag-GFP reporter cell line, wild type cell assay, Viking)
Assay type: cell-based
Settings: IP from 4-parameter dose response curve
Experimental: This assay is a kinetic assay that employs a reporter cell line (MT4-gag-GFP) to quantify the number of new cells infected in each round of replication.
MT4-GFP cells (250,000 cells/ml) were bulk-infected with HIV-1 (NL4-3 strain) at low multiplicity of infection (MOI) in RPMI+10% FBS for 24 hours. Cells were then washed once in RPMI+10% FBS and resuspended in RPMI+0% or 10% or 100% normal human serum (NHS). Test compounds were serial-diluted in DMSO on ECHO. The infected MT4-GFP cells were added to a 384-well poly-D-lysine coated black plate with clear bottom in which the diluted test compounds were placed. The cells were seeded at 8,000 cells per well and the final DMSO concentration was 0.4%. The infected cells (Green GFP cells) were quantified at both 24 and 48 hours post incubation using Acumen eX3. Viral reproductive ratio (R0) was determined using the number of infected cells at 48 hours divided by the number of infected cells at 24 hours. Percent viral growth inhibition was calculated by [1−(R−Rtripledrug)/(RDMSO−Rtripledrug)]*100. Compound potency IP or IC50 was determined by a 4-parameter dose response curve analysis.

[1] = MT4-GFP cells infected with HIV-1 NL4-3, 0% normal human serum, read-out: WILD TYPE CELL ASSAY Viking IP (0% NHS)
[2] = MT4-GFP cells infected with HIV-1 NL4-3, 100% normal human serum, read-out: WILD TYPE CELL ASSAY Viking IP (100% NHS)
[3] = Human immunodeficiency virus 1, NL43, MT4-GFP cells infected with HIV-1 NL4-3, 0% normal human serum, read-out: WILD TYPE CELL ASSAY Viking IP (0% NHS)
[4] = Human immunodeficiency virus 1, NL43, MT4-GFP cells infected with HIV-1 NL4-3, 100% normal human serum, read-out: WILD TYPE CELL ASSAY Viking IP (100% NHS)

Row | SMILES | pIC50 [1] | pIC50 [2] | pIC50 [3] | pIC50 [4]
1 | CC1(C)C(=O)c2c(O)c(=O)c(-c3nnc(Cc4ccc(F)cc4F)s3)cn2CC12CCCO2 (stereo not drawn) [Compound 13] | 8.27 | 6.23 |  | 
2 | C/C=C1\C(=O)c2c(O)c(=O)c(C(=O)NCc3ccc(F)cc3F)cn2CC12CCOCC2 [Compound 5] | 8.41 | 6.23 |  | 
3 | CC1COC2(C1)Cn1cc(C(=O)NCc3cccc(Cl)c3F)c(=O)c(O)c1C(=O)C2(C)C (single isomer, unassigned) [Compound 22] | 9.10 | 5.81 |  | 
4 | CC1COC2(C1)Cn1cc(C(=O)NCc3cccc(Cl)c3F)c(=O)c(O)c1C(=O)C2(C)C (single isomer, unassigned) [Compound 23] | 9.00 | 6.14 |  | 
5 | CC1(C)C(=O)c2c(O)c(=O)c(C(=O)NCc3ccc(F)c(Cl)c3F)cn2CC12CCCO2 (single isomer, unassigned) [Compound 8] |  |  | 8.77 | 6.23
6 | CC1(C)C(=O)c2c(O)c(=O)c(C(=O)NCc3ccc(F)cc3F)cn2CC12CCCO2 (single isomer, unassigned) [Compound 1] | 9.05 | 6.76 |  | 
7 | CC1(C)C(=O)c2c(O)c(=O)c(-c3nnc(Cc4ccc(F)cc4F)s3)cn2CC12CCCO2 (stereo not drawn) [Compound 12] | 8.30 | < 5.10 |  | 
8 | CC1(C)C(=O)c2c(O)c(=O)c(C(=O)NCc3ccc(F)cc3F)cn2CC12CCCCO2 (stereo not drawn) [Compound 3] | 8.38 | 5.60 |  | 
9 | CC1(C)C(=O)c2c(O)c(=O)c(C(=O)NCc3ccc(F)cc3)cn2CC12CCCO2 (stereo not drawn) [Compound 11] |  |  | 8.11 | 5.31
10 | CC1(C)C(=O)c2c(O)c(=O)c(C(=O)NCc3ccc(F)cc3F)cn2CC12CCCO2 (single isomer, unassigned) [Compound 2] | 8.92 | 5.64 |  | 
11 | CC1(C)C(=O)c2c(O)c(=O)c(C(=O)NCc3ccc(F)c(Cl)c3F)cn2CC12CCCO2 (stereo not drawn) [Compound 9] |  |  | 8.77 | 5.18
12 | CC1COC2(C1)Cn1cc(C(=O)NCc3ccc(F)cc3F)c(=O)c(O)c1C(=O)C2(C)C (stereo not drawn) [Compound 18] | 8.57 | 6.07 |  | 
13 | CC1COC2(C1)Cn1cc(C(=O)NCc3ccc(F)cc3F)c(=O)c(O)c1C(=O)C2(C)C (stereo not drawn) [Compound 19] | 8.59 | 6.34 |  | 
14 | CC1(C)C(=O)c2c(O)c(=O)c(C(=O)NCc3cccc(Cl)c3F)cn2CC12CCCO2 (single isomer, unassigned) [Compound 6] |  |  | 8.74 | 6.24
15 | CC1COC2(C1)Cn1cc(-c3nnc(Cc4ccc(F)cc4F)s3)c(=O)c(O)c1C(=O)C2(C)C (single isomer, unassigned) [Compound 25] | 8.42 | 5.95 |  | 
16 | CC1(C)C(=O)c2c(O)c(=O)c(C(=O)NCc3ccc(F)cc3)cn2CC12CCCO2 (single isomer, unassigned) [Compound 10] |  |  | 8.15 | 6.37
17 | CC1COC2(C1)Cn1cc(C(=O)NCc3cccc(Cl)c3F)c(=O)c(O)c1C(=O)C2(C)C (single isomer, unassigned) [Compound 20] | 8.70 | 5.93 |  | 
18 | CC1n2cc(C(=O)NCc3ccc(F)cc3F)c(=O)c(O)c2C(=O)C(C)(C)C12CCCO2 (single isomer, unassigned) [Compound 14] |  |  | 8.70 | 5.48
19 | CC1COC2(C1)Cn1cc(C(=O)NCc3cccc(Cl)c3F)c(=O)c(O)c1C(=O)C2(C)C (single isomer, unassigned) [Compound 21] | 8.89 | 6.65 |  | 
20 | CC1COC2(C1)Cn1cc(-c3nnc(Cc4ccc(F)cc4F)s3)c(=O)c(O)c1C(=O)C2(C)C (single isomer, unassigned) [Compound 24] |  | 6.45 | 8.54 | 
21 | CC1COC2(C1)Cn1cc(C(=O)NCc3ccc(F)cc3F)c(=O)c(O)c1C(=O)C2(C)C (stereo not drawn) [Compound 16] |  | 6.20 | 8.51 | 
22 | CC1(C)C(=O)c2c(O)c(=O)c(C(=O)NCc3cccc(Cl)c3F)cn2CC12CCCO2 (stereo not drawn) [Compound 7] |  |  | 8.74 | < 5.10
23 | CC1n2cc(C(=O)NCc3ccc(F)cc3F)c(=O)c(O)c2C(=O)C(C)(C)C12CCCO2 (stereo not drawn) [Compound 15] |  |  | 8.62 | 6.83
24 | CC1COC2(C1)Cn1cc(C(=O)NCc3ccc(F)cc3F)c(=O)c(O)c1C(=O)C2(C)C (stereo not drawn) [Compound 17] | 8.51 | 6.51 |  | 
